Where “and” joins values, the source holds several entries; their conditions need not be identical. Equal entries are not always repeated.
How the values were obtained:
r5-LO_WT = target: T1, r5-LO_WT (Homo sapiens, UniProt P09917); assay: Covalent inhibitor binding by mass spectrometry, r5-LO_WT; details: 20 µM protein, 100 µM compound, at least 1 h RT
T1 construct: made in house; host or cells: E. coli BL21 (DE3)
T1 sequence (P09917 1-674): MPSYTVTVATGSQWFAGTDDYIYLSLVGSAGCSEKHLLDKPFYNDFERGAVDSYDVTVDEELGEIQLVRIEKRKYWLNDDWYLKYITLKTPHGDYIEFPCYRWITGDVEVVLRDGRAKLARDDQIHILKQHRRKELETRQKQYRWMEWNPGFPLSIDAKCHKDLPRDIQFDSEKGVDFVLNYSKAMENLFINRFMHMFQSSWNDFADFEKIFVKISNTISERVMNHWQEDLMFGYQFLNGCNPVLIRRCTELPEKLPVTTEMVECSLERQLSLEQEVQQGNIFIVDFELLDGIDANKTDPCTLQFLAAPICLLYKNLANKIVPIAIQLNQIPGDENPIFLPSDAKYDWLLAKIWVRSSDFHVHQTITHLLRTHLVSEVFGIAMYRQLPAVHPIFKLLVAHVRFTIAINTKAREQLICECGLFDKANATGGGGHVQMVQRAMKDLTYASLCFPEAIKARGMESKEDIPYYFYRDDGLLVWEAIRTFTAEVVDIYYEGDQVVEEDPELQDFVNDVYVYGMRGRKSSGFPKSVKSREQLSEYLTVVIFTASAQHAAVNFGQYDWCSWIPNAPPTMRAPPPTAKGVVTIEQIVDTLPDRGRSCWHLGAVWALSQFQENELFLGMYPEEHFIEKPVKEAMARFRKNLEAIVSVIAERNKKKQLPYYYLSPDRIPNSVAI

U2OS cells = details: human, 10 µM
Her2/ErbB2 = system: Her2/ErbB2; design: method as in PMID 7892601; details: original target of AG879; cited from earlier work
12-LO = target: T2, 12-LO (Homo sapiens, UniProt P18054); assay: 12-HETE formation in platelets; details: 20 µM AA, 2.5 µM A23187, n = 3–6
T2 sequence (P18054 1-663): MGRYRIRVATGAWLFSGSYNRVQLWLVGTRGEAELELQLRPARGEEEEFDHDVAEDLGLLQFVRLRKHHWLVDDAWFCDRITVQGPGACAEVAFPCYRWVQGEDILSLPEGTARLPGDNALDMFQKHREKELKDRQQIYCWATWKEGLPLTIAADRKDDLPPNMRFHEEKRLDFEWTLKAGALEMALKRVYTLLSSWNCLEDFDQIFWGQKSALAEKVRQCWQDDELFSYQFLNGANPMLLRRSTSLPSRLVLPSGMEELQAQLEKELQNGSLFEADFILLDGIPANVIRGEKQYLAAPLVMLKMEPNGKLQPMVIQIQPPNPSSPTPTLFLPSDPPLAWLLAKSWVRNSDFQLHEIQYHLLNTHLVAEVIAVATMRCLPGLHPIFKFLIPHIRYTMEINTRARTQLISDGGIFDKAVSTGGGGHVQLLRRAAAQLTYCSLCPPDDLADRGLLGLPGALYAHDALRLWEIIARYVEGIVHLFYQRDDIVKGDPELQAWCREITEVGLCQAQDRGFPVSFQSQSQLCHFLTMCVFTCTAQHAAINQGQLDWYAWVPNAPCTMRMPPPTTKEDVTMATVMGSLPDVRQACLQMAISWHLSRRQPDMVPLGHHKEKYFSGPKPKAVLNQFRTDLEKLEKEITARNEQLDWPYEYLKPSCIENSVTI

15-LO = assay: 15-HETE formation in intact PMNL; details: read-out: IC50 for inhibition of 15-HETE formation, PMNL; intact PMNL, 20 µM AA, 2.5 µM A23187; (95% CI), n = 3–6
5-LO = target: T3, 5-LO (Homo sapiens, UniProt P09917); assay: 5-LO product formation in intact PMNL; details: IC50 for inhibition of 5-LO product formation, PMNL, intact PMNL, 20 µM AA, 2.5 µM A23187; (95% CI), n = 3–6
T3 sequence (P09917 1-674): T1 sequence (P09917 1-674)

CC(C)(C)c1cc(/C=C(\C#N)C(N)=S)cc(C(C)(C)C)c1O [AG879]
inhibitor adducts to r5-LO_WT detected by mass spectrometry (r5-LO_WT): did not detect mass shifts
normalized healthy cell count (U2OS cells): around 75%
IC50 (Her2/ErbB2): 1000 nM
IC50 for inhibition of 12-HETE formation, platelets (12-LO): no inhibition
IC50 (15-LO): > 25000 nM
IC50 (5-LO): 400 nM and 420 nM
